# Test results taken from patent publication US11179341B2, “Self-righting articles” (priority 2017, dated 2021).
# Tested on: Micrococcus lysodeikticus cells
# Assay: Lysozyme enzyme activity assay
# Assay type: biochemical
# Details: micropost tips 80% lysozyme and 20% PEO 200 k, versus uncompressed powder
# Description: To measure the activity of lysozyme, the assay provided by Sigma Aldrich was used which measures the amount of lysed Micrococcus lysodeikticus cells. Briefly, a 200 unit/mL Lysozyme solution in 50 mM Potassium Phosphate Buffer was added to a 0.015% [w/v] Micrococcus lysodeikticus cell suspension in the same buffer. The decrease was recorded in A450 over 5 minutes. Nine micropost tips were fabricated from 80% lysozyme and 20% PEO 200 k and dissolved sets of three micropost tips together. Triplicate assays were performed on each dissolved solution for a total of nine tests and the results were compared to the results of a solution made with lysozyme that was not compressed into a micropost tip.
substance,measurement,value
lysozyme,lysozyme activity after the manufacturing process,maintain their activity
